According to ChEMBL document CHEMBL1147602, “DNA binding ligands targeting drug-resistant Gram-positive bacteria. Part 1: Internal benzimidazole derivatives” (Bioorg Med Chem Lett, 2004):
pKd: −log10 of the molar value. Converted amounts (≈) assume the structure as drawn. “And” between values parts separate entries of the source, which are not always exact repeats. Equal entries are not always repeated. One block for each compound: values may come before it. The source made the active and inactive calls. The calls are words filed in the database; no cut-off is given here.

Legend:
Staphylococcus aureus [1] = assay: Antibacterial activity against methicillin-resistant Staphylococcus aureus ATCC 27660 strain; assay type: functional
Enterococcus faecalis [2] = assay: Antibacterial activity against vancomycin-resistant Enterococcus faecalis ATCC 51559 strain; assay type: functional
Streptococcus pneumoniae [3] = assay: Antibacterial activity against penicillin-sensitive Streptococcus pneumoniae ATCC 49619 strain; assay type: functional
Nucleic Acid = assay: Dissociation constant for the DNA binding was determined by quantitative DNase I footprint titration; assay type: nucleic-acid assay
Escherichia coli = assay: Antibacterial activity against Escherichia coli ATCC 25922 strain; assay type: functional
Enterococcus faecalis [4] = assay: Antibacterial activity against vancomycin-susceptible Enterococcus faecalis ATCC 29212 strain; assay type: functional
Staphylococcus aureus [5] = assay: Antibacterial activity against methicillin-susceptible Staphylococcus aureus ATCC 13709 strain; assay type: functional
Mus musculus = assay: In vivo protective dose for efficacy against a lethal infection of methicillin-resistant Staphylococcus aureus in a mouse peritoneal sepsis model administered intravenously; assay type: functional
Streptococcus pneumoniae [6] = assay: Antibacterial activity against penicillin-resistant Streptococcus pneumoniae ATCC 51422 strain; assay type: functional
Staphylococcus aureus [7] = assay: Antibacterial activity against methicillin-sensitive Staphylococcus aureus ATCC 13709 strain; assay type: functional
Enterococcus faecalis [8] = assay: Antibacterial activity against vancomycin-sensitive Enterococcus faecalis ATCC 29212 strain; assay type: functional
Moraxella catarrhalis = assay: Antibacterial activity against Moraxella catarrhalis ATCC 25238 strain; assay type: functional
Haemophilus influenzae = assay: Antibacterial activity against Haemophilus influenzae ATCC 78025 strain; assay type: functional
Pseudomonas aeruginosa = assay: Antibacterial activity against Pseudomonas aeruginosa (ATCC 27853) strain; inactive; assay type: functional
Streptococcus pneumoniae [9] = assay: Antibacterial activity against penicillin-resistant Streptococcus pneumoniae ATCC 51422 strain; NA means not analyzed; assay type: functional, organism-based
Enterococcus faecalis [10] = assay: Antibacterial activity against vancomycin-resistant Enterococcus faecalis ATCC 51559 strain; NA means not analyzed; assay type: functional, organism-based
Staphylococcus aureus [11] = assay: Antibacterial activity against methicillin-susceptible Staphylococcus aureus ATCC 13709 strain; (Range is 1-2 ug/mL); assay type: functional

SMILES: Cn1cc(NC(=O)c2sccc2Cl)cc1C(=O)Nc1cc(-c2nc3cc(C(=O)NCCN4CCOCC4)ccc3[nH]2)n(C)c1
MIC (Staphylococcus aureus [1]): 0.25 µg/mL (≈ 0.394 µM) | MIC (Enterococcus faecalis [2]): 0.13 µg/mL (≈ 0.205 µM) | MIC (Streptococcus pneumoniae [3]): 0.25 µg/mL (≈ 0.394 µM) | pKd (Nucleic Acid): > 10.00 | MIC (Escherichia coli): 4 µg/mL (≈ 6.3 µM) | MIC (Enterococcus faecalis [4]): 0.25 µg/mL (≈ 0.394 µM) | MIC (Staphylococcus aureus [5]): 0.25 µg/mL (≈ 0.394 µM) | Protective dose (Mus musculus): 50 mg/kg and 20 mg/kg | MIC (Streptococcus pneumoniae [6]): 0.03 µg/mL (≈ 0.0472 µM)

MIC (Streptococcus pneumoniae [3]): 0.25 µg/mL (≈ 0.394 µM) | MIC (Escherichia coli): > 32 µg/mL | MIC (Enterococcus faecalis [4]): 0.25 µg/mL (≈ 0.394 µM) | MIC (Staphylococcus aureus [5]): 0.13 µg/mL (≈ 0.205 µM)
SMILES: Cn1cc(NC(=O)c2ccc3[nH]c(-c4cc(NC(=O)c5sccc5Cl)cn4C)nc3c2)cc1C(=O)NCCN1CCOCC1

SMILES: Cn1cc(NC(=O)c2ccc(Cl)cc2F)cc1-c1nc2cc(C(=O)NCCN3CCOCC3)ccc2[nH]1
MIC (Staphylococcus aureus [1]): 0.25 µg/mL (≈ 0.476 µM) | MIC (Staphylococcus aureus [7]): 0.13 µg/mL (≈ 0.248 µM) | MIC (Enterococcus faecalis [2]): 0.06 µg/mL (≈ 0.114 µM) | MIC (Streptococcus pneumoniae [3]): 0.03 µg/mL (≈ 0.0571 µM) | MIC (Escherichia coli): > 32 µg/mL | MIC (Enterococcus faecalis [8]): 0.03 µg/mL (≈ 0.0571 µM) | MIC (Streptococcus pneumoniae [6]): 0.03 µg/mL (≈ 0.0571 µM)

SMILES: Cn1cc(NC(=O)c2ccc(F)cc2F)cc1C(=O)Nc1cc(-c2nc3cc(C(=O)NCCN4CCOCC4)ccc3[nH]2)n(C)c1
MIC (Staphylococcus aureus [1]): 0.13 µg/mL (≈ 0.206 µM) | MIC (Staphylococcus aureus [7]): 0.25 µg/mL (≈ 0.396 µM) | MIC (Enterococcus faecalis [2]): 0.25 µg/mL (≈ 0.396 µM) | MIC (Streptococcus pneumoniae [3]): 0.06 µg/mL (≈ 0.0951 µM) | MIC (Escherichia coli): 4 µg/mL (≈ 6.34 µM) | MIC (Enterococcus faecalis [8]): 0.06 µg/mL (≈ 0.0951 µM) | MIC (Streptococcus pneumoniae [6]): 0.06 µg/mL (≈ 0.0951 µM)

SMILES: Cn1cc(NC(=O)c2cc3cc4c(cc3s2)OCO4)cc1-c1nc2cc(C(=O)NCCN3CCOCC3)ccc2[nH]1
MIC (Staphylococcus aureus [1]): 0.03 µg/mL (≈ 0.0524 µM) | MIC (Staphylococcus aureus [7]): 0.03 µg/mL (≈ 0.0524 µM) | MIC (Enterococcus faecalis [2]): 0.03 µg/mL (≈ 0.0524 µM) | MIC (Streptococcus pneumoniae [3]): 0.06 µg/mL (≈ 0.105 µM) | MIC (Escherichia coli): 0.5 µg/mL (≈ 0.873 µM) | MIC (Enterococcus faecalis [8]): 0.03 µg/mL (≈ 0.0524 µM) | MIC (Moraxella catarrhalis): 0.031 µg/mL (≈ 0.0541 µM) | MIC (Haemophilus influenzae): 0.06 µg/mL (≈ 0.105 µM) | MIC (Pseudomonas aeruginosa): 32 µg/mL (≈ 55.9 µM) | MIC (Streptococcus pneumoniae [6]): 0.06 µg/mL (≈ 0.105 µM)

SMILES: Cn1cc(NC(=O)c2cc3ccccc3cn2)cc1-c1nc2cc(C(=O)NCCN3CCOCC3)ccc2[nH]1
MIC (Staphylococcus aureus [1]): 0.5 µg/mL (≈ 0.955 µM) | MIC (Staphylococcus aureus [7]): 0.5 µg/mL (≈ 0.955 µM) | MIC (Enterococcus faecalis [2]): 1 µg/mL (≈ 1.91 µM) | MIC (Streptococcus pneumoniae [3]): 0.25 µg/mL (≈ 0.477 µM) | pKd (Nucleic Acid): ~8.00 | MIC (Escherichia coli): > 32 µg/mL | MIC (Enterococcus faecalis [8]): 0.5 µg/mL (≈ 0.955 µM) | MIC (Streptococcus pneumoniae [6]): 0.5 µg/mL (≈ 0.955 µM)

SMILES: Cn1cc(NC(=O)c2sccc2Cl)cc1-c1nc2cc(C(=O)NCCN3CCOCC3)ccc2[nH]1
MIC (Staphylococcus aureus [1]): 8 µg/mL (≈ 15.6 µM) | MIC (Streptococcus pneumoniae [9]): inactive | MIC (Staphylococcus aureus [7]): 8 µg/mL (≈ 15.6 µM) | MIC (Streptococcus pneumoniae [3]): 4 µg/mL (≈ 7.8 µM) | pKd (Nucleic Acid): ~6.30 | MIC (Enterococcus faecalis [10]): inactive | MIC (Escherichia coli): > 32 µg/mL | MIC (Enterococcus faecalis [8]): 4 µg/mL (≈ 7.8 µM)

SMILES: Cn1cc(NC(=O)c2sccc2Cl)cc1C(=O)Nc1cc(-c2nc3cc(C(=O)NCCN4CCCCC4)ccc3[nH]2)n(C)c1
MIC (Staphylococcus aureus [1]): 0.5 µg/mL (≈ 0.79 µM) | MIC (Staphylococcus aureus [7]): 2 µg/mL (≈ 3.16 µM) | MIC (Enterococcus faecalis [2]): 0.5 µg/mL (≈ 0.79 µM) | MIC (Streptococcus pneumoniae [3]): 0.25 µg/mL (≈ 0.395 µM) | MIC (Escherichia coli): > 32 µg/mL | MIC (Enterococcus faecalis [8]): 0.5 µg/mL (≈ 0.79 µM) | MIC (Streptococcus pneumoniae [6]): 0.13 µg/mL (≈ 0.205 µM)

SMILES: Cn1cc(NC(=O)c2sc3ccccc3c2Cl)cc1-c1nc2cc(C(=O)NCCN3CCOCC3)ccc2[nH]1
MIC (Staphylococcus aureus [1]): 0.13 µg/mL (≈ 0.231 µM) | MIC (Staphylococcus aureus [7]): 0.25 µg/mL (≈ 0.444 µM) | MIC (Enterococcus faecalis [2]): 0.25 µg/mL (≈ 0.444 µM) | MIC (Streptococcus pneumoniae [3]): 0.13 µg/mL (≈ 0.231 µM) | MIC (Escherichia coli): > 32 µg/mL | MIC (Enterococcus faecalis [8]): 0.5 µg/mL (≈ 0.888 µM) | MIC (Streptococcus pneumoniae [6]): 0.25 µg/mL (≈ 0.444 µM)

MIC (Streptococcus pneumoniae [3]): 0.13 µg/mL (≈ 0.203 µM) | MIC (Escherichia coli): > 32 µg/mL | MIC (Enterococcus faecalis [4]): 1 µg/mL (≈ 1.56 µM) | MIC (Staphylococcus aureus [11]): 2 µg/mL (≈ 3.12 µM)
SMILES: Cn1cc(NC(=O)c2cc(NC(=O)c3cc(NC(=O)c4sccc4Cl)cn3C)cn2C)cc1C(=O)NCCN1CCOCC1

SMILES: Cn1cc(NC(=O)c2sccc2Cl)cc1C(=O)Nc1cc(-c2nc3cc(C(=O)NCCN4CCSCC4)ccc3[nH]2)n(C)c1
MIC (Staphylococcus aureus [1]): 0.5 µg/mL (≈ 0.768 µM) | MIC (Staphylococcus aureus [7]): 1 µg/mL (≈ 1.54 µM) | MIC (Enterococcus faecalis [2]): 0.13 µg/mL (≈ 0.2 µM) | MIC (Streptococcus pneumoniae [3]): 0.13 µg/mL (≈ 0.2 µM) | MIC (Escherichia coli): > 32 µg/mL | MIC (Enterococcus faecalis [8]): 0.13 µg/mL (≈ 0.2 µM) | MIC (Streptococcus pneumoniae [6]): 0.06 µg/mL (≈ 0.0921 µM)

SMILES: Cn1cc(NC(=O)c2ccc(Cl)cc2F)cc1C(=O)Nc1cc(-c2nc3cc(C(=O)NCCN4CCOCC4)ccc3[nH]2)n(C)c1
MIC (Staphylococcus aureus [1]): 0.13 µg/mL (≈ 0.201 µM) | MIC (Staphylococcus aureus [7]): 0.25 µg/mL (≈ 0.386 µM) | MIC (Enterococcus faecalis [2]): 0.13 µg/mL (≈ 0.201 µM) | MIC (Streptococcus pneumoniae [3]): 0.03 µg/mL (≈ 0.0464 µM) | MIC (Escherichia coli): 8 µg/mL (≈ 12.4 µM) | MIC (Enterococcus faecalis [8]): 0.03 µg/mL (≈ 0.0464 µM) | MIC (Streptococcus pneumoniae [6]): 0.13 µg/mL (≈ 0.201 µM)

SMILES: Cn1cc(NC(=O)c2sc3ccccc3c2Cl)cc1C(=O)Nc1cc(-c2nc3cc(C(=O)NCCN4CCOCC4)ccc3[nH]2)n(C)c1
MIC (Staphylococcus aureus [1]): 0.5 µg/mL (≈ 0.73 µM) | MIC (Staphylococcus aureus [7]): 0.13 µg/mL (≈ 0.19 µM) | MIC (Enterococcus faecalis [2]): 0.25 µg/mL (≈ 0.365 µM) | MIC (Streptococcus pneumoniae [3]): 0.13 µg/mL (≈ 0.19 µM) | MIC (Escherichia coli): > 32 µg/mL | MIC (Enterococcus faecalis [8]): 0.25 µg/mL (≈ 0.365 µM) | MIC (Streptococcus pneumoniae [6]): 0.13 µg/mL (≈ 0.19 µM)
